Reference: patent US20250144067A1, “PERSONALIZED STARVATION THERAPY FOR CANCER” (Faeth Therapeutics, Inc., priority 2021, published 2025)
Structures can show the parent of a compound that is named as a salt.

Experiments:
[1] = tested on: NCI-H292 lung cancer cells; assay: FDA drug screening, complete media vs cholesterol-free media with simvastatin (TABLE 2); assay type: cell-based, human; conditions: for Cholesterol-free media + simvastatin (0.04 μM) / Complete Media: NCI-H292 cells
[2] = tested on: NCI-H292 lung cancer cells; assay: FDA drug screening, complete media vs cholesterol-free media without statin (TABLE 1); assay type: cell-based, human
[3] = FDA drug library screen, cholesterol-free media with simvastatin 0.04 μM
[4] = FDA drug library screen, complete media
[5] = NCI-H292 cells, cholesterol-free media without statin, FDA drug library screen
[6] = complete vs cholesterol-free media; […]
[7] = complete media minus cholesterol-free media + simvastatin, >0 enhanced anti-cancer activity, about 0 neutral, <0 antagonist
[8] = Complete minus Cholesterol-free; >0 enhanced anti-cancer activity, about 0 neutral, <0 antagonist
[9] = NCI-H292 cells, complete media, FDA drug library screen
[10] = FDA library drug in cholesterol-free media with simvastatin 0.04 μM
[11] = FDA library drug in complete media
[12] = complete media vs cholesterol-free media + simvastatin (0.04 μM), >0 enhanced anti-cancer activity, about 0 neutral, <0 antagonist
[13] = NCI-H292 cells, cholesterol-free media without statin
[14] = cholesterol-free media with simvastatin 0.04 μM, cell growth value in FDA drug screen
[15] = complete media, cell growth value in FDA drug screen
[16] = Complete minus Cholesterol-free; greater than 0 enhanced anti-cancer activity, about 0 neutral, below 0 antagonist
[17] = NCI-H292 cells, FDA drug library screen, cholesterol-free media without statin
[18] = NCI-H292 cells, FDA drug library screen, complete media
[19] = drug in cholesterol-free media with simvastatin 0.04 μM
[20] = complete vs cholesterol-free media; >0 enhanced anti-cancer activity, about 0 neutral, <0 antagonist

COc1ccc2[n-]c([S+]([O-])Cc3ncc(C)c(OC)c3C)nc2c1.COc1ccc2[n-]c([S+]([O-])Cc3ncc(C)c(OC)c3C)nc2c1.[Mg+2] (stereo not drawn) [Esomeprazole magnesium]
Cholesterol-free media + simvastatin (0.04 μM) [1, 3]: 0.8343
Complete Media [1, 4]: 1.003
Difference ([1]; complete media minus cholesterol-free media + simvastatin, […]): 0.17
Cholesterol-free [2, 5]: 0.6797
Difference [2, 6]: 0.50

COc1cc(C(C)=O)ccc1OCCCN1CCC(c2noc3cc(F)ccc23)CC1 [Iloperidone]
Cholesterol-free media + simvastatin (0.04 μM) [1, 3]: 0.9523
Complete Media [1, 4]: 1.134
Difference [1, 7]: 0.18
Difference [2, 8]: −0.06
Complete [2, 9]: 0.8863

CNCc1ccc(-c2[nH]c3cc(F)cc4c3c2CCNC4=O)cc1 [Rucaparib (Camsylate)]
Cholesterol-free media + simvastatin (0.04 μM) [1, 10]: 1.277
Complete Media [1, 11]: 0.994
Difference [1, 12]: −0.28
Difference [2, 8]: −0.26
Cholesterol-free [2, 13]: 1.063
Complete ([2]; NCI-H292 cells, complete media): 0.7996

COC(=O)C1=C(C)NC(C)=C(C(=O)OC(C)(C)CN(C)CCC(c2ccccc2)c2ccccc2)C1c1cccc([N+](=O)[O-])c1 (stereo not drawn) [Lercanidipine (hydrochloride)]
Cholesterol-free media + simvastatin (0.04 μM) [1, 14]: 0.8086
Complete Media [1, 15]: 0.8565
Difference [1, 7]: 0.05
Difference [2, 16]: −0.18
Cholesterol-free [2, 17]: 0.8895
Complete [2, 18]: 0.7061

CC(C)(O/N=C(\C(=O)N[C@@H]1C(=O)N2C(C(=O)[O-])=C(C[n+]3ccccc3)CS[C@H]12)c1csc(N)n1)C(=O)O [Ceftazidime]
Cholesterol-free media + simvastatin (0.04 μM) [1, 19]: 1.391
Difference [1, 12]: −0.24
Difference [2, 8]: −0.05
Cholesterol-free [2, 5]: 0.9478
Complete [2, 9]: 0.8943

CN(C)[C@@H]1C(O)=C(C(N)=O)C(=O)[C@@]2(O)C(O)=C3C(=O)c4c(O)cccc4[C@@](C)(O)[C@H]3C[C@@H]12 [Tetracycline (hydrochloride)]
Cholesterol-free media + simvastatin (0.04 μM) ([1]; cholesterol-free media with simvastatin 0.04 μM, FDA drug library screen (TABLE 2)): 0.7005
Complete Media ([1]; complete media, FDA drug library screen (TABLE 2)): 0.7002
Difference ([1]; complete media minus cholesterol-free media + simvastatin (0.04 μM), >0 enhanced anti-cancer activity, about 0 neutral, <0 antagonist): 0.00
Cholesterol-free [2, 13]: 1.387
Complete ([2]; NCI-H292 cells, complete media): 0.93
Difference ([2]; complete vs cholesterol-free media; greater than 0 enhanced anti-cancer activity, about 0 neutral, below 0 antagonists): −0.46

Cn1nnc(-c2ccc(-c3ccc(N4C[C@H](CO)OC4=O)cc3F)cn2)n1 [Tedizolid]
Cholesterol-free media + simvastatin (0.04 μM) [1, 14]: 1.119
Complete Media [1, 15]: 1.184
Difference [1, 7]: 0.07
Difference [2, 16]: −0.10
Cholesterol-free [2, 17]: 0.9116
Complete [2, 18]: 0.8073

Cc1ncc([N+](=O)[O-])n1CC(O)CCl (stereo not drawn) [Ornidazole]
Cholesterol-free media + simvastatin (0.04 μM) [1, 19]: 1.385
Complete Media ([1]; drug in complete media): 1.209
Difference [1, 12]: −0.18
Cholesterol-free [2, 5]: 0.6543
Complete [2, 9]: 1.082
Difference [2, 20]: 0.43

COC1=C[C@@H]2[C@@H]3Cc4ccc(OC)c(O)c4[C@]2(CCN3C)CC1=O [Sinomenine hydrochloride]
Cholesterol-free media + simvastatin (0.04 μM) [1, 19]: 1.006
Complete Media ([1]; drug in complete media): 0.7844
Difference ([1]; complete media vs cholesterol-free media + simvastatin (0.04 μM), […]): −0.22
Cholesterol-free [2, 5]: 1.217
Complete [2, 9]: 1.524
Difference [2, 6]: 0.31

COc1cc(Nc2ncc(F)c(Nc3ccc4c(n3)N(COP(=O)(O)O)C(=O)C(C)(C)O4)n2)cc(OC)c1OC [Fostamatinib]
Cholesterol-free media + simvastatin (0.04 μM) [1, 10]: 1.406
Complete Media [1, 11]: 1.042
Difference [1, 12]: −0.36
Difference [2, 8]: −0.29
Cholesterol-free [2, 13]: 0.7013
Complete ([2]; NCI-H292 cells, complete media): 0.4125

Cc1cn([C@H]2C=C[C@@H](CO)O2)c(=O)[nH]c1=O [Stavudine]
Cholesterol-free media + simvastatin (0.04 μM) [1, 19]: 1.022
Complete Media ([1]; drug in complete media): 0.8293
Difference [1, 12]: −0.19
Difference [2, 16]: −0.09
Cholesterol-free [2, 17]: 0.9921
Complete [2, 18]: 0.8994

COc1ccc(CN=c2[nH]c(N3CCC[C@H]3CO)ncc2C(=O)NCc2ncccn2)cc1Cl [Avanafil]
Cholesterol-free media + simvastatin (0.04 μM) [1, 19]: 1.12
Complete Media ([1]; drug in complete media): 0.9091
Difference [1, 12]: −0.21
Difference [2, 8]: −0.27
Cholesterol-free [2, 13]: 0.9577
Complete ([2]; NCI-H292 cells, complete media): 0.6848

CO/N=C(\C(=O)N[C@@H]1C(=O)N2C(C(=O)OCOC(=O)C(C)(C)C)=C(C)CS[C@H]12)c1csc(N)n1.Cl [Cefetamet pivoxil (hydrochloride)]
Cholesterol-free media + simvastatin (0.04 μM) [1, 19]: 1.058
Complete Media ([1]; drug in complete media): 0.852
Difference [1, 12]: −0.21
Difference [2, 16]: −0.16
Cholesterol-free [2, 17]: 1.076
Complete [2, 18]: 0.9196

Nc1nc(N)c2nc(-c3ccccc3)c(N)nc2n1 [Triamterene]
Cholesterol-free media + simvastatin (0.04 μM) [1, 10]: 1.582
Complete Media [1, 11]: 1.301
Difference [1, 12]: −0.28
Cholesterol-free [2, 5]: 0.6087
Complete [2, 9]: 1.304
Difference [2, 20]: 0.69
